Laboratory results taken from publication PMC5433426, “Identification of small molecule inhibitors of the Lin28-mediated blockage of pre-let-7g processing” (Organic & Biomolecular Chemistry, 2016).
Where two headings read alike, the source gives them in different places.

Molecular target: T1, Lin28 (Homo sapiens, UniProt Q9H9Z2)
T1 construct: gene LIN28A; recombinant, N-terminal GST tag; multimeric on pre-let-7
T1 sequence (Q9H9Z2 1-209): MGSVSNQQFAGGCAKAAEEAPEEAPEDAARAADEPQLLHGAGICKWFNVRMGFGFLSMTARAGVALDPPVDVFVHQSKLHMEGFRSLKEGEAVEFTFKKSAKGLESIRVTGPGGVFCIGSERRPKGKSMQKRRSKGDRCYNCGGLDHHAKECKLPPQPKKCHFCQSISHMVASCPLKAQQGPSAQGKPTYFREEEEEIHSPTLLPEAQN
Assay: fluorescence polarization displacement of fluorescein-labelled tpre-let-7g RNA
Assay type: binding

| IC50 (read-out: IC50) [µM] | SMILES | IC50 [µM] |
| --- | --- | --- |
| 1.18 ± 0.23 | O=C(O)C1=CC(=C(c2ccc(O)c(C(=O)O)c2)c2ccc(O)c(C(=O)O)c2)C=CC1=O [compound 4, Aurintricarboxylic acid] |  |
| 4.71 ± 0.16 | O=C(O)c1ccc2nc3c4c(O)ccc(O)c4c(=O)c(Cl)c-3oc2c1 [compound 14, SB/ZW/0065] |  |
|  | NC(Cc1cc(O)c(O)cc1O)C(=O)O (racemic) [compound 10, 6-hydroxy-DL-DOPA] | 7.05 ± 0.13 |

| SMILES | IC50 (read-out: IC50) [µM] | IC50 [µM] |
| --- | --- | --- |
| Nc1c(S(=O)(=O)O)cc(Nc2ccc(S(=O)(=O)O)c(Nc3nc(Cl)nc(Cl)n3)c2)c2c1C(=O)c1ccccc1C2=O [11b, Reactive Blue 4] | 10.75 ± 0.1 |  |
